In US11185532B2, “Methods of treating pruritus” (Clexio Biosciences Ltd., priority 2019, dated 2021):
Where two headings read alike, the source gives them in different places.

Columns and labels:
Adrenergic α2A = Adrenergic α2A (Homo sapiens, UniProt P08913); experiment: biochemical
SST4 [1] = target: T1, SST4 (Homo sapiens, UniProt P31391); experiment: biochemical
Adrenergic α2C = Adrenergic α2C (Homo sapiens, UniProt P18825); experiment: biochemical
[2] = system: PNT-induced neuropathic pain in pigs; experiment: Peripheral neuritis trauma (PNT)-induced neuropathic pain in pigs; assay type: in vivo; conditions: topical twice daily 0.1%, 0.33%, 1%
Description: 30 pigs were anaesthetized and an incision of 8-10 cm made through the skin and fascia on the left side of their lower backs, approximately 1 cm lateral and parallel to the spine line. The muscles were retracted and the sciatic nerve exposed. Following exposure, PNT was induced by loosely tying (1-2 mm apart) around the lateral half of the sciatic nerve bundle, three 3-0 silk threads, each previously immersed in complete Freund's adjuvant. 14 days after surgery and once chronic neuropathic pain had been established, treatment was initiated according to the protocol shown in Table 5. [table] At time points over the following 14 days, the animals were assessed for a variety of pain and motor parameters.

SST4 [3] = target: T1, SST4; experiment: In vitro functional assay, SST4; assay type: cell-based; conditions: agonist; highest concentration tested 10 μm
HRH4 = target: T2, HRH4 (Homo sapiens, UniProt Q9H3N8); experiment: β-arrestin GPCR internalization assay; assay type: cell-based; conditions: for EC50: read-out: RC50 (EC50)
T2 construct: Eurofins Discover X, USA
T2 sequence (Q9H3N8 whole entry): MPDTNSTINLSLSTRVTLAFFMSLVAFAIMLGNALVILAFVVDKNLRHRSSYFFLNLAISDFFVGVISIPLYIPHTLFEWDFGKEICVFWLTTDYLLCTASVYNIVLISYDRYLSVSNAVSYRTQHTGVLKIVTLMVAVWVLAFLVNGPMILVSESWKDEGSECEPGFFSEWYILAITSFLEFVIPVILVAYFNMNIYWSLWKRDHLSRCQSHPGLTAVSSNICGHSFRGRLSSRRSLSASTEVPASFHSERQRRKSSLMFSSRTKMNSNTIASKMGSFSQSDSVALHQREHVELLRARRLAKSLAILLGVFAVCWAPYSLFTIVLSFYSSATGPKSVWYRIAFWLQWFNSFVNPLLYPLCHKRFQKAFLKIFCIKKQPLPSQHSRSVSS

T1 sequence (P31391 whole entry): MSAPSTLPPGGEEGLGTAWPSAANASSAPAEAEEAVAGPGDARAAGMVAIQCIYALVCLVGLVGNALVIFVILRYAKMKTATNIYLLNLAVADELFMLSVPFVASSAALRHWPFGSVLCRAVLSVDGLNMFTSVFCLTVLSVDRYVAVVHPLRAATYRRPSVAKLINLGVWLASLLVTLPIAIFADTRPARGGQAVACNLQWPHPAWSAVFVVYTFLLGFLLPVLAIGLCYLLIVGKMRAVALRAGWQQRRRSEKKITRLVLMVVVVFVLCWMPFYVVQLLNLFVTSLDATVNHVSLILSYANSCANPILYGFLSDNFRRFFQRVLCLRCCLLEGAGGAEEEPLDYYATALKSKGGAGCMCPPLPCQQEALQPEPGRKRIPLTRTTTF
Sequence of Adrenergic α2A (P08913 whole entry): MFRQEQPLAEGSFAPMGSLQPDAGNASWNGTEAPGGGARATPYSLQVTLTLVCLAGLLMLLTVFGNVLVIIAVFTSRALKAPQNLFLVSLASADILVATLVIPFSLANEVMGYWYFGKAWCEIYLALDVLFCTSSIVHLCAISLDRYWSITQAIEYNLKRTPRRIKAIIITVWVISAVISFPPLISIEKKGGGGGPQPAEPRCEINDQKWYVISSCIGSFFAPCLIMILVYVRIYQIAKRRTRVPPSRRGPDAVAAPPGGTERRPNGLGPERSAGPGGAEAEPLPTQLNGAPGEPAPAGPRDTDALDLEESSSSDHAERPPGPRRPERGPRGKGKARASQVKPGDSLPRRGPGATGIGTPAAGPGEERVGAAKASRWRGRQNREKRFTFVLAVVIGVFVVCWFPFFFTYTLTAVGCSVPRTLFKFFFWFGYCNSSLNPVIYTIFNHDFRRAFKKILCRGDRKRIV
Sequence of Adrenergic α2C (P18825 whole entry): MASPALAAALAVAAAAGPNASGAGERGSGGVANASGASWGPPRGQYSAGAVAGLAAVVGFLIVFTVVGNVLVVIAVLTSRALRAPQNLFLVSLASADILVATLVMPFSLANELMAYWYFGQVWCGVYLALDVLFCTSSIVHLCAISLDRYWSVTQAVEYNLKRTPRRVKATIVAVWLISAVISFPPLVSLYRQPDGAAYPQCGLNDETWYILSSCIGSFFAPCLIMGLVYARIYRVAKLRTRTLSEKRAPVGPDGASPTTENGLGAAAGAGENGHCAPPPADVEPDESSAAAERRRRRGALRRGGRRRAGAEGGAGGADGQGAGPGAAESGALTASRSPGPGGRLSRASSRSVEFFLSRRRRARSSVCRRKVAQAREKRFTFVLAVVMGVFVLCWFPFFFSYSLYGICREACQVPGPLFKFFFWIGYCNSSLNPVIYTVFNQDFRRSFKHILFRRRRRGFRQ

Row | SMILES | inhibition at 10 µM (Adrenergic α2A) | inhibition at 10 µM (SST4 [1]) | inhibition at 10 µM (Adrenergic α2C) | Stimulus-evoked pain, Von Frey (VF) withdrawal threshold ([2]; 14 days, versus placebo, from Day 0) | Tactile allodynia, feather stimulation ([2]; 12-13 cm pigeon feather, as soon as Day 0) | Spontaneous pain behavior, General Behavioral Score (GBS) ([2]; 3 h and 6 h post-dose, from Day 0) | Open field motor test, locomotor activity / sedation ([2]; throughout the study) | EC50 (SST4 [3]) | EC50 (HRH4; assay format: Agonist) | IC50 (HRH4; assay format: Antagonist, read-out: RC50 (IC50)) | EC50 (HRH4; assay format: Inverse agonist)
1 | Clc1cccc(Cl)c1N=C1NCCN1 [clonidine] | 94% | 13% | 97% | – | – | – | – | – | – | – | –
2 | Cc1cccc(Cc2c[nH]cn2)c1C [detomidine] | – | 35% | – | dose-dependent analgesic effect | dose-dependent decreased tactile allodynia | dose-dependent reduction in GBS scores | did not affect locomotor activity at any dose level | 7.3 µM | 9.6 µM | > 100 µM | > 100 µM
